Measurements as given in publication doi:10.1101/767673v1 (bioRxiv, 2019).
Where a SMILES comes first, the peptide text is derived from it. Bridges are numbered along the chain shown (N, C = ends). [ ]: non-standard residue; d: D form. dPhe(4-CF3) = N[C@H](Cc1ccc(C(F)(F)F)cc1)C(=O)O; dTrp(6-F) = N[C@H](Cc1c[nH]c2cc(F)ccc12)C(=O)O; S8 = C=CCCCCCC[C@](C)(N)C(=O)O; R5 = C=CCCC[C@@](C)(N)C(=O)O

Legend:
[1] = target: human Mdm2 protein (amino acids 1–125) (Homo sapiens, UniProt Q00987); assay: Isothermal titration calorimetry; format: binding; details: PBS pH 7.2, 3% DMSO, 0.001% Tween-20, duplicates
[2] = target: Mdm2 (1-125) (Homo sapiens, UniProt Q00987); assay: Competitive fluorescence anisotropy / FP binding assay, Mdm2; details: FP competition assay
[3] = target: T1, Mdm4 (Homo sapiens, UniProt O15151); assay: Competitive fluorescence anisotropy / FP binding assay, Mdm4; details: FP competition assay
T1 sequence (O15151 1-490): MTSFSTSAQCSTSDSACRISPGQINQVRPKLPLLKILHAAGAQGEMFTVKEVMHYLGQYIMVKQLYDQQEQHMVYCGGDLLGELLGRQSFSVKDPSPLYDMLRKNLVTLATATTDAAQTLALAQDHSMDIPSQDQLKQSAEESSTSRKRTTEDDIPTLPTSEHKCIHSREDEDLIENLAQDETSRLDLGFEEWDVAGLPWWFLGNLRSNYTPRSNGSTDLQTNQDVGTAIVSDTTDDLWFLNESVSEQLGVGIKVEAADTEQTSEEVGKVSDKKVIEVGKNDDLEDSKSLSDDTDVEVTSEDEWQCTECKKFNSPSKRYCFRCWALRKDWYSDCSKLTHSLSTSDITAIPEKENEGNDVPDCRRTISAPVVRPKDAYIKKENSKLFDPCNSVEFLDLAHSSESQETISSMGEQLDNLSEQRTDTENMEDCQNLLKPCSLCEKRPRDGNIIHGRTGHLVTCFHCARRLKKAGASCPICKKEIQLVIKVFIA

Row | Compound | ITC enthalpy of binding (ΔH) to Mdm2 [1] | Binding to Mdm2 in the FP assay [2] | Binding to Mdm4 in the FP assay [3]
1 | CC(C)C[C@@H](NC(=O)[C@@H](CC(C)C)NC(=O)[C@@H](CCCCN)NC(=O)[C@@H](CCC(=O)O)NC(=O)[C@@H](Cc1ccc(C(F)(F)F)cc1)NC(=O)[C@@H](CC(N)=O)NC(=O)[C@@]1(C)CCCC=CCCC[C@@](C)(N)C(=O)N[C@H](C)C(=O)N[C@H](Cc2c[nH]c3cc(F)ccc23)C(=O)N[C@H](Cc2ccc(O)cc2)C(=O)N1)C(=O)N[C@H](CCCNC(=N)N)C(N)=O [^dPMI-δ(1-5)] | -66.1 kJ/mol |  | 
2 | CC(C)C[C@@H](NC(=O)[C@@H](CC(C)C)NC(=O)[C@@]1(C)CCCC=CCCCCCC[C@](C)(NC(=O)[C@H](N)[C@H](C)O)C(=O)N[C@H](Cc2c[nH]c3cc(F)ccc23)C(=O)N[C@H](Cc2ccc(O)cc2)C(=O)N[C@H](C)C(=O)N[C@H](CC(N)=O)C(=O)N[C@H](Cc2ccc(C(F)(F)F)cc2)C(=O)N[C@H](CCC(=O)O)C(=O)N1)C(=O)N[C@H](CCCNC(=N)N)C(N)=O [^dPMI-δ(2-9)] (H-[dT][S8][dTrp(6-F)][dY][dA][dN][dPhe(4-CF3)][dE][R5][dL][dL][dR]-NH2; staple 2-9; N-terminus and C-terminus assumed) |  | no binding | displayed no binding
